In US6787525B1, “Glyceryl nucleotides, method for the production thereof and their use” (priority 1998, dated 2004):

Experiments:
[1] = tested on: PC-3; test: In vitro cytostatic effect (SRB): PC-3, Prostate cancer
[2] = tested on: EKVX; test: In vitro cytostatic effect (SRB): EKVX, Lung cancer
[3] = tested on: OVCAR-3; test: In vitro cytostatic effect (SRB): OVCAR-3, Ovarian cancer
[4] = tested on: A549/ATCC; test: In vitro cytostatic effect (SRB): A549/ATCC, Lung cancer
[5] = tested on: HCT-116; test: In vitro cytostatic effect (SRB): HCT-116, Intestinal cancer
[6] = tested on: SK-MEL-5; test: In vitro cytostatic effect (SRB): SK-MEL-5, Melanoma
[7] = tested on: SF-268; test: In vitro cytostatic effect (SRB): SF-268, Cancer of the central nervous system
[8] = tested on: HOP-62; test: In vitro cytostatic effect (SRB): HOP-62, Lung cancer
[9] = tested on: RPMI-8226; test: In vitro cytostatic effect (SRB): RPMI-8226, Leukemia
[10] = tested on: UO-31; test: In vitro cytostatic effect (SRB): UO-31, Kidney cancer
[11] = tested on: SNB-75; test: In vitro cytostatic effect (SRB): SNB-75, Cancer of the central nervous system
[12] = tested on: OVCAR-5; test: In vitro cytostatic effect (SRB): OVCAR-5, Ovarian cancer
[13] = tested on: CAKI-1; test: In vitro cytostatic effect (SRB): CAKI-1, Kidney cancer
[14] = tested on: OVCAR-8; test: In vitro cytostatic effect (SRB): OVCAR-8, Ovarian cancer
[15] = tested on: U251; test: In vitro cytostatic effect (SRB): U251, Cancer of the central nervous system
[16] = tested on: OVCAR-4; test: In vitro cytostatic effect (SRB): OVCAR-4, Ovarian cancer
[17] = tested on: HCT-15; test: In vitro cytostatic effect (SRB): HCT-15, Intestinal cancer
[18] = tested on: ACHN; test: In vitro cytostatic effect (SRB): ACHN, Kidney cancer
[19] = tested on: 768-0; test: In vitro cytostatic effect (SRB): 768-0, Kidney cancer
[20] = tested on: SK-OV-3; test: In vitro cytostatic effect (SRB): SK-OV-3, Ovarian cancer
[21] = tested on: SK-MEL-2; test: In vitro cytostatic effect (SRB): SK-MEL-2, Melanoma
[22] = tested on: DU-145; test: In vitro cytostatic effect (SRB): DU-145, Prostate cancer
[23] = tested on: MCF7; test: In vitro cytostatic effect (SRB): MCF7, Breast cancer
[24] = tested on: SK-MEL-28; test: In vitro cytostatic effect (SRB): SK-MEL-28, Melanoma
[25] = tested on: UACC-257; test: In vitro cytostatic effect (SRB): UACC-257, Melanoma
[26] = tested on: MDA-MB-231/ATCC; test: In vitro cytostatic effect (SRB): MDA-MB-231/ATCC, Breast cancer
[27] = tested on: MDA-MB-435; test: In vitro cytostatic effect (SRB): MDA-MB-435, Breast cancer
[28] = tested on: TK-10; test: In vitro cytostatic effect (SRB): TK-10, Kidney cancer
[29] = read-out: LC50, 48-hour incubation

SMILES: CCCCCCCCCCCCCCCCCCOC(COP(=O)(O)OCC1OC(n2cc(F)c(=O)[nH]c2=O)CC1O)COP(=O)(O)OCC1OC(n2ccc(N)nc2=O)C(O)C1O (racemic) [NSC 698688-A/1, arabinocytidylyl-(5′→1)-2-O-octadecyl-rac-glycerylyl-(3→5′)-5-fluoro-2′-deoxyuridine]
- GI50 ([1]; 48-hour incubation): 11.5 µM
- TGI ([1]; 48-hour incubation): 8.64E − 05 mol/l
- CC50 [1, 29]: > 100 µM
- GI50 ([2]; 48-hour incubation): > 100 µM
- TGI ([2]; 48-hour incubation): >1.00E − 04 mol/l
- CC50 [2, 29]: > 100 µM
- GI50 ([3]; 48-hour incubation): > 100 µM
- TGI ([3]; 48-hour incubation): >1.00E − 04 mol/l
- CC50 [3, 29]: > 100 µM
- GI50 ([4]; 48-hour incubation): 0.346 µM
- TGI ([4]; 48-hour incubation): >1.00E − 04 mol/l
- CC50 [4, 29]: > 100 µM
- GI50 ([5]; 48-hour incubation): 4.9 µM
- TGI ([5]; 48-hour incubation): >1.00E − 04 mol/l
- CC50 [5, 29]: > 100 µM
- GI50 ([6]; 48-hour incubation): > 100 µM
- TGI ([6]; 48-hour incubation): >1.00E − 04 mol/l
- CC50 [6, 29]: > 100 µM
- GI50 ([7]; 48-hour incubation): 0.745 µM
- TGI ([7]; 48-hour incubation): >1.00E − 04 mol/l
- CC50 [7, 29]: > 100 µM
- GI50 ([8]; 48-hour incubation): 0.699 µM
- TGI ([8]; 48-hour incubation): >1.00E − 04 mol/l
- CC50 [8, 29]: > 100 µM
- GI50 ([9]; 48-hour incubation): 1.65 µM
- TGI ([9]; 48-hour incubation): >1.00E − 04 mol/l
- CC50 [9, 29]: > 100 µM
- GI50 ([10]; 48-hour incubation): 21.3 µM
- TGI ([10]; 48-hour incubation): >1.00E − 04 mol/l
- CC50 [10, 29]: > 100 µM
- GI50 ([11]; 48-hour incubation): 20.4 µM
- TGI ([11]; 48-hour incubation): >1.00E − 04 mol/l
- CC50 [11, 29]: > 100 µM
- GI50 ([12]; 48-hour incubation): 89.6 µM
- TGI ([12]; 48-hour incubation): >1.00E − 04 mol/l
- CC50 [12, 29]: > 100 µM
- GI50 ([13]; 48-hour incubation): 10.4 µM
- TGI ([13]; 48-hour incubation): >1.00E − 04 mol/l
- CC50 [13, 29]: > 100 µM
- GI50 ([14]; 48-hour incubation): 0.968 µM
- TGI ([14]; 48-hour incubation): >1.00E − 04 mol/l
- CC50 [14, 29]: > 100 µM
- GI50 ([15]; 48-hour incubation): 3.14 µM
- TGI ([15]; 48-hour incubation): 2.48E − 05 mol/l
- CC50 [15, 29]: 73.8 µM
- GI50 ([16]; 48-hour incubation): 58.5 µM
- TGI ([16]; 48-hour incubation): >1.00E − 04 mol/l
- CC50 [16, 29]: > 100 µM
- GI50 ([17]; 48-hour incubation): 14.4 µM
- TGI ([17]; 48-hour incubation): >1.00E − 04 mol/l
- CC50 [17, 29]: > 100 µM
- GI50 ([18]; 48-hour incubation): 0.466 µM
- TGI ([18]; 48-hour incubation): >1.00E − 04 mol/l
- CC50 [18, 29]: > 100 µM
- GI50 ([19]; 48-hour incubation): 0.854 µM
- TGI ([19]; 48-hour incubation): 1.34E − 05 mol/l
- CC50 [19, 29]: 44.4 µM
- GI50 ([20]; 48-hour incubation): 36.3 µM
- TGI ([20]; 48-hour incubation): >1.00E − 04 mol/l
- CC50 [20, 29]: > 100 µM
- GI50 ([21]; 48-hour incubation): > 100 µM
- TGI ([21]; 48-hour incubation): >1.00E − 04 mol/l
- CC50 [21, 29]: > 100 µM
- GI50 ([22]; 48-hour incubation): 2.68 µM
- TGI ([22]; 48-hour incubation): >1.00E − 04 mol/l
- CC50 [22, 29]: > 100 µM
- GI50 ([23]; 48-hour incubation): 0.17 µM
- TGI ([23]; 48-hour incubation): >1.00E − 04 mol/l
- CC50 [23, 29]: > 100 µM
- GI50 ([24]; 48-hour incubation): 57.8 µM
- TGI ([24]; 48-hour incubation): >1.00E − 04 mol/l
- CC50 [24, 29]: > 100 µM
- GI50 ([25]; 48-hour incubation): 49.8 µM
- TGI ([25]; 48-hour incubation): >1.00E − 04 mol/l
- CC50 [25, 29]: > 100 µM
- GI50 ([26]; 48-hour incubation): > 100 µM
- TGI ([26]; 48-hour incubation): >1.00E − 04 mol/l
- CC50 [26, 29]: > 100 µM
- GI50 ([27]; 48-hour incubation): 33.8 µM
- TGI ([27]; 48-hour incubation): >1.00E − 04 mol/l
- CC50 [27, 29]: > 100 µM
- GI50 ([28]; 48-hour incubation): 22.9 µM
- TGI ([28]; 48-hour incubation): >1.00E − 04 mol/l
- CC50 [28, 29]: > 100 µM
